# Source: US11866430B2, “Naphthyridinone compounds useful as T cell activators” (priority 2018, dated 2024)
# Read-outs that look alike come from different tables or passages of the source.
# Experiments:
# human DGKα = human DGKα (Homo sapiens (Human), UniProt P23743); experiment: biochemical; conditions: detergent/lipid micelle substrate; read-out: DGKα IC50
# Method in brief: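 Enzymes were baculovirus/Sf9 full-length human DGKα or DGKζ with His tag. The substrate was PS/DAG in octyl glucoside micelles, in MOPS pH 7.5 buffer with NaCl, MgCl2, CaCl2 and DTT.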
# [1] = system: pre-activated CD4 T cells and Raji cells; experiment: Raji CD4 T Cell IL2 Assay; format: cell-based; conditions: Homo sapiens, Raji
# Human venous whole blood = experiment: Human Whole Blood IFN-γ Assay; format: cell-based; conditions: human whole blood, anti-CD3 plus anti-CD28 as baseline, 3 μM Example 40 co-stimulation as 100% activation, read-out: INF-γ Whole Blood Normalized Agonist EC50
# Protocol: Human venous whole blood (22.5 μL per well), obtained from healthy donors, was pre-treated with compounds for one hour at 37° C. in a humidified 95% air/5% CO2 incubator. The blood was stimulated with 2.5 μL anti-human CD3 and anti-CD28 mAb at a final concentration of 1 μg/mL each for 24 hours at 37° C. IFN-γ in the supernatants was measured using AlphaLISA kit (Cat #AL217).
# naïve human CD8 T cells [2] = experiment: cells; conditions: 3 μM Example 40 co-stimulation as 100% activation
# Method in brief: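 Thawed frozen cells, 40,000/well, stimulated on plate-bound anti-CD3 (coated at 0.05 μg/mL) plus soluble anti-CD28 0.1 μg/mL; compounds added immediately after plating. After 20 h at 37° C., supernatant IFN-γ quantitated by AlphaLISA, counts converted to IFN-γ concentration […].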
# naïve human CD8 T cells [3] = experiment: CellTiter-Glo CD8 T Cell Proliferation Assay; format: cell-based; conditions: CellTiter-Glo CD8 T cell proliferation, normalized, read-out: CD8 GLO normalized EC50
# Protocol: Frozen naïve human CD8 T cells were thawed in RPMI+10% FBS, incubated for 2 h in 37° C., and counted. The 384-well tissue culture plate was coated overnight at 4° C. with 20 μl anti-human CD3 at 0.1 μg/mL in plain RPMI, which was removed off the plate before 20 k/40 μl CD8 T cells with 0.5 μg/mL soluble anti-human CD28 were added to each well. The compounds were echoed to the cell plate immediately after the cells were plated. After 72 h incubation at 37° C. incubator, 10 μl CellTiter-glo reagent (Promega catalog number G7570) was added to each well. The plate was vigorously shaken for 5 mins, incubated at room temperature for another 15 mins and read on Envision for CD8 T cell proliferation. In analysis, 0.1 μg/mL anti-CD3 and 0.5 μg/mL anti-CD28 stimulated CD8 T cell signal was background.
# [4] = read-out: HuCD8 INFG Normalized EC50, anti-CD3 plus anti-CD28 as baseline
# [5] = Homo sapiens, T-cell, read-out: HuCD8 INFG Normalized EC50, anti-CD3 plus anti-CD28 as baseline
# Sequence of human DGKα (P23743 other isoform, or with tags, fused parts or gaps): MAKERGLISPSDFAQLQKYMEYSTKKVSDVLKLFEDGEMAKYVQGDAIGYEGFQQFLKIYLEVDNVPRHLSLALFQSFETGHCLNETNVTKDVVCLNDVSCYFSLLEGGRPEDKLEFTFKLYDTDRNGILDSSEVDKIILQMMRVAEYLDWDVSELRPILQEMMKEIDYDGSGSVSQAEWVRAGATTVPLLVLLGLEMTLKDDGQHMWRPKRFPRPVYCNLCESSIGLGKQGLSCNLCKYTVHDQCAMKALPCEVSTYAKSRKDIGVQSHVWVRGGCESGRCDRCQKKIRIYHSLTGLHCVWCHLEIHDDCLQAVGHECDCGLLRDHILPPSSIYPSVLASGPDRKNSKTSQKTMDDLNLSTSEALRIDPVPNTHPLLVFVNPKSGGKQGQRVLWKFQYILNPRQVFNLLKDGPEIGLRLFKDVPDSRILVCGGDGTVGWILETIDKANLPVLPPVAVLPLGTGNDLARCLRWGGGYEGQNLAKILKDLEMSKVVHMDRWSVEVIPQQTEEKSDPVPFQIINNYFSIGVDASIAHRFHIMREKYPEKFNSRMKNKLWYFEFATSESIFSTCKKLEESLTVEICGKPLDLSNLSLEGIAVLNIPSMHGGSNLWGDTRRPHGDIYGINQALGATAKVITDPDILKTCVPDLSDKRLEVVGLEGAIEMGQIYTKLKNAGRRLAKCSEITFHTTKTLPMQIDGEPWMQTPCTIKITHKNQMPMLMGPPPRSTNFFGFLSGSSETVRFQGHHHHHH
structure (smiles),measurement,setting,value
"Cn1c(=O)c([N+](=O)[O-])c(N2CCN(CC(O)c3ccc(F)cc3)CC2)c2nc(C#N)ccc21 (stereo not shown) [Example 36, 8-{4-[2-(4-fluorophenyl)-2-hydroxyethyl]piperazin-1-yl}-5-methyl-7-nitro-6-oxo-5,6-dihydro-1,5-naphthyridine-2-carbonitrile]",IC50,human DGKα,1400 nM
"COc1cc(C#N)ccc1CN1CCN(c2c(C#N)c(=O)n(C)c3ccc(Cl)nc23)CC1 [Example 424, 6-chloro-4-{4-[(4-cyano-2-methoxyphenyl)methyl]piperazin-1-yl}-1-methyl-2-oxo-1,2-dihydro-1,5-naphthyridine-3-carbonitrile]",IC50,human DGKα,770 nM
same,IC50,[1],> 100000 nM
"COc1cc(F)ccc1C(c1ccc(F)cc1)N1CCN(c2c(C#N)c(=O)n(C)c3ccc(C#N)nc23)CC1 (single isomer, unassigned) [Example 406, 8-{4-[(4-fluoro-2-methoxyphenyl)(4-fluorophenyl)methyl]piperazin-1-yl}-5-methy-6-oxo-5,6-dihydro-L5-naphthyridine-2,7-dicarbonitrile]",EC50,Human venous whole blood,2190 nM
same,EC50,naïve human CD8 T cells [2]; [4],410 nM
"CC(c1ccc(F)cc1)N1CCN(c2c(C#N)c(=O)n(C)c3ccc(Cl)nc23)CC1 (single isomer, unassigned) [Example 388, 6-chloro-4-{4-[1-(4-fluorophenyl)ethyl]piperazin-1-yl}-1-methyl-2-oxo-1,2-dihydro-1,5-naphthyridine-3-carbonitrile]",IC50,human DGKα,53 nM
same,EC50,naïve human CD8 T cells [3],480 nM
"Cc1ccc(CN2CCN(c3c(C#N)c(=O)n(C)c4ccc(Br)nc34)CC2)c(O)c1 [Example 372, 6-bromo-4-{4-[(2-hydroxy-4-methylphenyl)methyl]piperazin-1-yl}-1-methyl-2-oxo-1,2-dihydro-1,5-naphthyridine-3-carbonitrile]",IC50,human DGKα,33 nM
same,EC50,Human venous whole blood; Homo sapiens,5000 nM
same,IC50,[1],> 100000 nM
"Cn1c(=O)c(C#N)c(N2CCN(C(c3ccc(F)cc3)C3CCC3)CC2)c2nc(Cl)ccc21 (single isomer, unassigned) [Example 383, 6-chloro-4-{4-[cyclobutyl(4-fluorophenyl)methyl]piperazin-1-yl}-1-methyl-2-oxo-1,2-dihydro-1,5-naphthyridine-3-carbonitrile]",EC50,naïve human CD8 T cells [3],60 nM
"Cn1c(=O)c(C#N)c(N2CCN(C(c3ccc(F)cc3)C3CCC3)CC2)c2nc(Cl)ccc21 (single isomer, unassigned) [Example 382, 6-chloro-4-{4-[cyclobutyl(4-fluorophenyl)methyl]piperazin-1-yl}-1-methyl-2-oxo-1,2-dihydro-1,5-naphthyridine-3-carbonitrile]",EC50,naïve human CD8 T cells [3],1790 nM
"Cn1c(=O)c(C#N)c(N2CCN(C(c3ccc(F)cc3)c3ccccc3O)CC2)c2nc(C#N)ccc21 (stereo not shown) [Example 11, 8-{4-[(4-fluorophenyl)(2-hydroxyphenyl)methyl]piperazin-1-yl}-5-methyl-6-oxo-5,6-dihydro-1,5-naphthyridine-2,7-dicarbonitrile]",IC50,human DGKα,450 nM
"CC(c1ccc(F)cc1)N1CCN(c2c(C#N)c(=O)n(C)c3ccc(Cl)nc23)CC1 (single isomer, unassigned) [Example 387, 6-chloro-4-{4-[1-(4-fluorophenyl)ethyl]piperazin-1-yl}-1-methyl-2-oxo-1,2-dihydro-1,5-naphthyridine-3-carbonitrile]",EC50,naïve human CD8 T cells [3],180 nM
"CC(C)C(c1ccc(F)cc1)N1CCN(c2c(C#N)c(=O)n(C)c3ccc(Cl)nc23)CC1 (single isomer, unassigned) [Example 315, 6-chloro-4-{4-[1-(4-fluorophenyl)-2-methylpropyl]piperazin-1-yl}-methyl-2-oxo-1,2-dihydro-1,5-naphthyridine-3-carbonitrile]",IC50,[1],250 nM
same,EC50,"naïve human CD8 T cells [3]; Homo sapiens, T-cell",1260 nM
"C#CCn1c(=O)c([N+](=O)[O-])c(N2CCN(C(c3ccc(F)cc3)c3ccc(F)cc3O)CC2)c2nc(C#N)ccc21 (single isomer, unassigned) [Example 121, 8-(4-((4-fluoro-2-hydroxyphenyl)(4-fluorophenyl)methyl)piperazin-1-yl)-7-nitro-6-oxo-5-(prop-2-yn-1-yl)-5,6-dihydro-1,5-naphthyridine-2-carbonitrile]",IC50,human DGKα,1900 nM
same,EC50,Human venous whole blood; Homo sapiens,550 nM
"C#CCn1c(=O)c([N+](=O)[O-])c(N2CCN(C(C)c3ccc(F)cc3)CC2)c2nc(C#N)ccc21 (single isomer, unassigned) [Example 136, 8-(4-(1-(4-fluorophenyl)ethyl)piperazin-1-yl)-7-nitro-6-oxo-5-(prop-2-yn-1-yl)-5,6-dihydro-1,5-naphthyridine-2-carbonitrile]",IC50,human DGKα,210 nM
same,EC50,Human venous whole blood,1160 nM
"Cn1c(=O)c([N+](=O)[O-])c(N2CCN(Cc3cccc4ccccc34)CC2)c2nc(C#N)ccc21 [Example 415, 5-methyl-8-{4-[(naphthalen-1-yl)methyl]piperazin-1-yl}-7-nitro-6-oxo-5,6-dihydro-1,5-naphthyridine-2-carbonitrile]",EC50,"naïve human CD8 T cells [3]; Homo sapiens, T-cell",20 nM
"COc1cc(F)ccc1C(c1ccc(F)cc1)N1CCN(c2c(C#N)c(=O)n(C)c3ccc(C#N)nc23)CC1 (single isomer, unassigned) [Example 407, 8-{4-[(4-fluoro-2-methoxyphenyl)(4-fluorophenyl)methyl]piperazin-1-yl}-5-methy-6-oxo-5,6-dihydro-L5-naphthyridine-2,7-dicarbonitrile]",EC50,Human venous whole blood,780 nM
same,EC50,naïve human CD8 T cells [2]; [4],120 nM
"C#CCn1c(=O)c([N+](=O)[O-])c(N2CCN(C(CC)c3ccc(F)cc3)CC2)c2nc(C#N)ccc21 (single isomer, unassigned) [Example 141, 8-{4-[1-(4-fluorophenyl)propyl]piperazin-1-yl}-7-nitro-6-oxo-5-(prop-2-yn-1-yl)-5,6-dihydro-1,5-naphthyridine-2-carbonitrile]",IC50,human DGKα,270 nM
same,EC50,"naïve human CD8 T cells [3]; Homo sapiens, T-cell",10 nM
same,EC50,naïve human CD8 T cells [2]; [5],30 nM
"Cc1ccc2c(n1)c(N1CCN(Cc3cccc(Cl)c3O)CC1)c(C#N)c(=O)n2C [Example 389, 4-{4-[(3-chloro-2-hydroxyphenyl)methyl]piperazin-1-yl}-1,6-dimethyl-2-oxo-1,2-dihydro-1,5-naphthyridine-3-carbonitrile]",IC50,human DGKα,850 nM
"Cc1cccc(CN2CCN(c3c(C#N)c(=O)n(C)c4ccc(Cl)nc34)CC2)c1O [Example 391, 6-chloro-4-{4-[(2-hydroxy-3-methylphenyl)methyl]piperazin-1-yl}-1-methyl-2-oxo-1,2-dihydro-1,5-naphthyridine-3-carbonitrile]",IC50,human DGKα,260 nM
same,EC50,Human venous whole blood; Homo sapiens,3500 nM
"CCCCn1c(=O)c([N+](=O)[O-])c(N2CCN(C(c3ccccc3)c3ccccc3)CC2)c2ncccc21 [Example 177, 4-(4-benzhydrylpiperazin-1-yl)-1-butyl-3-nitro-1,5-naphthyridin-2(1H)-one]",EC50,"naïve human CD8 T cells [3]; Homo sapiens, T-cell",10000 nM
"Cn1c(=O)c(C#N)c(N2CCN(C(CC(C)(C)C)c3ccc(F)cc3)CC2)c2nc(Cl)ccc21 (single isomer, unassigned) [Example 377, 6-chloro-4-{4-[1-(4-fluorophenyl)-3,3-dimethylbutyl]piperazin-1-yl}-1-methyl-2-oxo-1,2-dihydro-1,5-naphthyridine-3-carbonitrile]",EC50,naïve human CD8 T cells [3],10000 nM
"C#CCn1c(=O)c([N+](=O)[O-])c(N2CCN(C(c3ccc(F)cc3)C3CC3)CC2)c2nc(C#N)ccc21 (single isomer, unassigned) [Example 143, 8-(4-(cyclopropyl(4-fluorophenyl)methyl)piperazin-1-yl)-7-nitro-6-oxo-5-(prop-2-yn-1-yl)-5,6-dihydro-1,5-naphthyridine-2-carbonitrile]",IC50,human DGKα,1300 nM
same,EC50,"naïve human CD8 T cells [3]; Homo sapiens, T-cell",10 nM
same,EC50,naïve human CD8 T cells [2]; [5],90 nM
"Cc1ccc2c(n1)c(N1CCN(C(C)c3ccc(F)cc3)CC1)c(Br)c(=O)n2C (stereo not shown) [Example 224, 3-bromo-4-(4-(1-(4-fluorophenyl)ethyl)piperazin-1-yl)-1,6-dimethyl-1,5-naphthyridin-2(1H)-one]",IC50,human DGKα,540 nM
same,EC50,"naïve human CD8 T cells [3]; Homo sapiens, T-cell",4280 nM
"Cn1c(=O)c(C#N)c(N2CCN(C(CC(C)(C)C)c3ccc(F)cc3)CC2)c2nc(Cl)ccc21 (single isomer, unassigned) [Example 378, 6-chloro-4-{4-[1-(4-fluorophenyl)-3,3-dimethylbutyl]piperazin-1-yl}-1-methyl-2-oxo-1,2-dihydro-1,5-naphthyridine-3-carbonitrile]",EC50,naïve human CD8 T cells [3],1740 nM
